In one assay the test system is S. aureus ATTC 25923. The experiment in a line: microbe, parasite or virus in culture. To be noted: Staphylococcus aureus, ATTC25923, read-out: Sau MIC.
The target of the next assay is Mtb gyrase (Mycobacterium tuberculosis, UniProt P9WG45+P9WG47). In words: biochemical. It counts as biochemical.
The test system of the next assay is M. tuberculosis H37Rv. The experiment in a line: microbe, parasite or virus in culture. Type of assay: cell-based, Mycobacterium tuberculosis. To be noted: for MIC: Mycobacterium tuberculosis, H37RV, read-out: Mtb MIC.

The values that follow come from PMC9233935 (Journal of medicinal chemistry, 2022).

As a reminder, the IC50 is the concentration needed to halve the response being measured. Read a low IC50 as greater potency in that assay.

Molecules are shown by their SMILES. Converted amounts (≈) assume the structure as drawn. Like-named read-outs stand apart in the source and are kept apart here. Where only a bound is given, the exact number is not on record here.

Chain of Mtb gyrase (P9WG45 whole entry, looked up): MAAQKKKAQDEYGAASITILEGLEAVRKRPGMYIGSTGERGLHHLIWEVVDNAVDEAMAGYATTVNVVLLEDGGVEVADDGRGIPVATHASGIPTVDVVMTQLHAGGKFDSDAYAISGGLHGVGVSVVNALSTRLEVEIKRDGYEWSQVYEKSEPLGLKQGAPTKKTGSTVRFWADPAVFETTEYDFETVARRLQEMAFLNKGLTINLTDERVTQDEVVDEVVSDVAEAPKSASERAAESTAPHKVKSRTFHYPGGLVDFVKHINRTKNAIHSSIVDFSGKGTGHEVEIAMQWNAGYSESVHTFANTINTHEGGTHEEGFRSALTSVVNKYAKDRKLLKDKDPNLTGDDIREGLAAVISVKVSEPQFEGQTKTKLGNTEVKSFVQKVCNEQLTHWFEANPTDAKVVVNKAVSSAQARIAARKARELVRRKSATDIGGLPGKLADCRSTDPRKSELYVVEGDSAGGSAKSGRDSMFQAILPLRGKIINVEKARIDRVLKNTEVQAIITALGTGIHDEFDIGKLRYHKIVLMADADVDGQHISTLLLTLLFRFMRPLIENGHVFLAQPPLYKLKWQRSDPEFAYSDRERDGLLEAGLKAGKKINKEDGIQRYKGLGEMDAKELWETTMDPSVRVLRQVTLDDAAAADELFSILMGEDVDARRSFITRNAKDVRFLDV
Chain of Mtb gyrase (P9WG47 whole entry, looked up): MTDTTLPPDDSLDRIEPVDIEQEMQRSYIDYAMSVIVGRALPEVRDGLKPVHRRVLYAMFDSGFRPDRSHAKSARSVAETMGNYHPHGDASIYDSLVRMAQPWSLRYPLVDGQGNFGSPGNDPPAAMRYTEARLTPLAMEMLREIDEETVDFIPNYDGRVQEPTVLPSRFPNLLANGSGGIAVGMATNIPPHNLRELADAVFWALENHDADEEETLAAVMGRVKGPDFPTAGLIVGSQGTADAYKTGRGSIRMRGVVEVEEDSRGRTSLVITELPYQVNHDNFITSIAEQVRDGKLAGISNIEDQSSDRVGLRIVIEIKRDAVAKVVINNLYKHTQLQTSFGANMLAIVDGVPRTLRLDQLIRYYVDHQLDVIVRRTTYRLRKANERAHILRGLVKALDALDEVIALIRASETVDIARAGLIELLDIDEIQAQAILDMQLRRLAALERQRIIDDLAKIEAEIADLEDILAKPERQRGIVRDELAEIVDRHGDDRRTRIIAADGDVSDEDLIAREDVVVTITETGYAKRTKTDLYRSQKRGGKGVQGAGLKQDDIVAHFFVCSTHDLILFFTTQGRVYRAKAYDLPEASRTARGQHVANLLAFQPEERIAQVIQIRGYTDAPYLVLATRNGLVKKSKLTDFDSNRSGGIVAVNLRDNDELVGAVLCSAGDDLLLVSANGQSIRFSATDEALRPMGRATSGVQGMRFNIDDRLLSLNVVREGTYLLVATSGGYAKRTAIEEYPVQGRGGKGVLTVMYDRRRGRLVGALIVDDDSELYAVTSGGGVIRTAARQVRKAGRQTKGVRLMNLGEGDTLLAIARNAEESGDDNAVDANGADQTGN

On to `C[C@@H]1CN2c3c(cc4c(N5CCC[C@@H](O)C5)noc4c3F)CC3(C(=O)NC(=O)NC3=O)[C@H]2[C@H](C)O1` [Compound 22, (2R,4S,4aS)-11-fluoro-8-((R)-3-hydroxypiperidin-1-yl)-2,4-dimethyl-1,2,4,4a-tetrahydro-2’H,6H-spiro[isoxazolo[4,5-g][1,4]oxazino[4,3-a]quinoline-5,5’-pyrimidine]-2’,4’,6’(1’H,3’H)-trione], for which, in the assay with S. aureus ATTC 25923, the MIC was found to be 94 µM (≈ 45.8 µg/mL). `C[C@@H]1CN2c3c(cc4c(OC[C@@H]5CCC(=O)N5)noc4c3F)CC3(C(=O)NC(=O)NC3=O)[C@H]2[C@H](C)N1C#N` [Compound 42, (2R,4S,4aS)-11-fluoro-2,4-dimethyl-2’,4’,6’-trioxo-8-(((S)-5-oxopyrrolidin-2-yl)methoxy)-1,1’,2,3’,4,4a,4’,6’-octahydro-2’H,3H,6H-spiro[isoxazolo[4,5-g]pyrazino[1,2-a]quinoline-5,5’-pyrimidine]-3-carbonitrile] gave an IC50 against Mtb gyrase of 2.6 µM. With `C[C@@H]1CN2c3c(cc4c(OC[C@@H]5CCC(=O)O5)noc4c3F)CC3(C(=O)NC(=O)NC3=O)[C@H]2[C@H](C)O1` [Compound 26, (2R,4S,4aS)-11-fluoro-2,4-dimethyl-8-(((S)-5-oxotetrahydrofuran-2-yl)methoxy)-1,2,4,4a-tetrahydro-2’H,6H-spiro[isoxazolo[4,5-g][1,4]oxazino[4,3-a]quinoline-5,5’-pyrimidine]-2’,4’,6’(1’H,3’H)-trione], the “fold less active against Mtb than 23” value in the assay with M. tuberculosis H37Rv is reported as 2- to 4 fold.

Take `C[C@@H]1CN2c3c(cc4c(N5CC[C@H](N)C5)noc4c3F)CC3(C(=O)NC(=O)NC3=O)[C@H]2[C@H](C)O1` [Compound 16, (2R,4S,4aS)-8-((S)-3-aminopyrrolidin-1-yl)-11-fluoro-2,4-dimethyl-1,2,4,4a-tetrahydro-2’H,6H-spiro[isoxazolo[4,5-g][1,4]oxazino[4,3-a]quinoline-5,5’-pyrimidine]-2’,4’,6’(1’H,3’H)-trione]: at Mtb gyrase, the “Mtb gyrase IC50 fold higher (less potent) than moxifloxacin” value (from here on “Mtb gyrase IC50 fold higher”) is recorded as “around 2 fold”. Further, in the assay with M. tuberculosis H37Rv, the “fold higher Mtb MIC compared to 8” value turned out to be 9 to16 fold.

In the case of `C[C@@H]1CN2c3c(cc4c(N5CC[C@H](CO)C5)noc4c3F)CC3(C(=O)NC(=O)NC3=O)[C@H]2[C@H](C)O1` [Compound 14, (2R,4S,4aS)-11-fluoro-8-((S)-3-(hydroxymethyl)pyrrolidin-1-yl)-2,4-dimethyl-1,2,4,4a-tetrahydro-2’H,6H-spiro[isoxazolo[4,5-g][1,4]oxazino[4,3-a]quinoline-5,5’-pyrimidine]-2’,4’,6’(1’H,3’H)-trione], the “Mtb gyrase IC50 fold higher” value at Mtb gyrase was at most 2 fold.

Consider `C[C@@H]1CN2c3c(cc4c(N5C(=O)OC[C@@H]5C)noc4c3F)CC3(C(=O)NC(=O)NC3=O)[C@H]2[C@H](C)N1C#N` [Compound 38, (2R,4S,4aS)-11-fluoro-2,4-dimethyl-8-((S)-4-methyl-2-oxooxazolidin-3-yl)-2’,4’,6’-trioxo-1,1’,2,3’,4,4a,4’,6’-octahydro-2’H,3H,6H-spiro[isoxazolo[4,5-g]pyrazino[1,2-a]quinoline-5,5’-pyrimidine]-3-carbonitrile], for which the “fold more active against Mtb than matched pair zoliflodacin” value in the assay with M. tuberculosis H37Rv is given as about 2 fold. Regarding `Cc1nnc(-c2noc3c(F)c4c(cc23)CC2(C(=O)NC(=O)NC2=O)[C@H]2[C@H](C)[C@@H](O)[C@H](C)CN42)o1` [Compound 45, (2R,3S,4S,4aR)-11-fluoro-3-hydroxy-2,4-dimethyl-8-(5-methyl-1,3,4-oxadiazol-2-yl)-2,3,4,4a-tetrahydro-1H,2’H,6H-spiro[isoxazolo[4,5-g]pyrido[1,2-a]quinoline-5,5’-pyrimidine]-2’,4’,6’(1’H,3’H)-trione], the “fold reduction in Mtb activity relative to matched pair 5” value in the assay with M. tuberculosis H37Rv was determined as 10 fold. `C[C@@H]1CN2c3c(cc4c(N5CC[C@H](C#N)C5)noc4c3F)CC3(C(=O)NC(=O)NC3=O)[C@H]2[C@H](C)O1` [Compound 19, (S)-1-((2R,4S,4aS)-11-fluoro-2,4-dimethyl-2’,4’,6’-trioxo-1,1’,2,3’,4,4a,4’,6’-octahydro-2’H,6H-spiro[isoxazolo[4,5-g][1,4]oxazino[4,3-a]quinoline-5,5’-pyrimidin]-8-yl)pyrrolidine-3-carbonitrile]: the “Mtb gyrase IC50 fold higher” value at Mtb gyrase is at most 2 fold. In the case of `C[C@@H]1CN2c3c(cc4c(OC[C@H]5CNC(=O)C5)noc4c3F)CC3(C(=O)NC(=O)NC3=O)[C@H]2[C@H](C)O1` [Compound 31, (2R,4S,4aS)-11-fluoro-2,4-dimethyl-8-(((R)-5-oxopyrrolidin-3-yl)methoxy)-1,2,4,4a-tetrahydro-2’H,6H-spiro[isoxazolo[4,5-g][1,4]oxazino[4,3-a]quinoline-5,5’-pyrimidine]-2’,4’,6’(1’H,3’H)-trione], in the assay on M. tuberculosis H37Rv, the “Mtb MIC” value stood at 2.0 µM and the MIC is 2 µM (≈ 1 µg/mL). For `C[C@@H]1CN2c3c(cc4c(OCC[C@@H]5CCC(=O)N5)noc4c3F)CC3(C(=O)NC(=O)NC3=O)[C@H]2[C@H](C)O1` [Compound 32, (2R,4S,4aS)-11-fluoro-2,4-dimethyl-8-(2-((S)-5-oxopyrrolidin-2-yl)ethoxy)-1,2,4,4a-tetrahydro-2’H,6H-spiro[isoxazolo[4,5-g][1,4]oxazino[4,3-a]quinoline-5,5’-pyrimidine]-2’,4’,6’(1’H,3’H)-trione], the “fold less active against Mtb than 23” value with M. tuberculosis H37Rv is on record as ~ 4 fold. For the molecule `C[C@@H]1CN2c3c(cc4c(N5C[C@@H](O)[C@@H](O)C5)noc4c3F)CC3(C(=O)NC(=O)NC3=O)[C@H]2[C@H](C)O1` [Compound 12, (2R,4S,4aS)-8-((3R,4S)-3,4-dihydroxypyrrolidin-1-yl)-11-fluoro-2,4-dimethyl-1,2,4,4a-tetrahydro-2’H,6H-spiro[isoxazolo[4,5-g][1,4]oxazino[4,3-a]quinoline-5,5’-pyrimidine]-2’,4’,6’(1’H,3’H)-trione], in the assay on S. aureus ATTC 25923, the MIC was over 125 µM. As to `Cc1nnc(-c2noc3c(F)c4c(cc23)CC2(C(=O)NC(=O)NC2=O)[C@H]2[C@H](C)O[C@H](C)CN42)o1` [Methyl-oxadiazole 5, reference compound], the “fold more potent as inhibitor of Mtb gyrase than moxifloxacin” value at Mtb gyrase is recorded as 5 fold. In the assay on M. tuberculosis H37Rv, the “fold less active against Mtb than moxifloxacin” value amounted to 10 fold and the MIC amounted to 1.7 µM (≈ 0.8 µg/mL). As for `C[C@@H]1CN2c3c(cc4c(N5CC[C@@](C)(O)C5)noc4c3F)CC3(C(=O)NC(=O)NC3=O)[C@H]2[C@H](C)O1` [Compound 15, 11-fluoro-8-(3-hydroxy-3-methylpyrrolidin-1-yl)-2,4-dimethyl-1,2,4,4a-tetrahydro-2’H,6H-spiro[isoxazolo[4,5-g][1,4]oxazino[4,3-a]quinoline-5,5’-pyrimidine]-2’,4’,6’(1’H,3’H)-trione], the MIC in the assay on M. tuberculosis H37Rv (192 h) is over 125 µM. Take `C[C@@H]1CN2c3c(cc4c(-n5cncn5)noc4c3F)CC3(C(=O)NC(=O)NC3=O)[C@H]2[C@H](C)N1C#N` [Compound 39, 11-fluoro-2,4-dimethyl-2’,4’,6’-trioxo-8-(1H-1,2,4-triazol-1-yl)-1,1’,2,3’,4,4a,4’,6’-octahydro-2’H,3H,6H-spiro[isoxazolo[4,5-g]pyrazino[1,2-a]quinoline-5,5’-pyrimidine]-3-carbonitrile]: in the assay on M. tuberculosis H37Rv, the “fold more active against Mtb than matched pair 7” value stood at 2 fold. Moreover, in the assay on M. tuberculosis H37Rv (192 h), the MIC is 0.9 µM (≈ 0.431 µg/mL). Consider `C[C@@H]1CN2c3c(cc4c(OC[C@H]5CCC(=O)O5)noc4c3F)CC3(C(=O)NC(=O)NC3=O)[C@H]2[C@H](C)O1` [Compound 27, (2R,4S,4aS)-11-fluoro-2,4-dimethyl-8-(((R)-5-oxotetrahydrofuran-2-yl)methoxy)-1,2,4,4a-tetrahydro-2’H,6H-spiro[isoxazolo[4,5-g][1,4]oxazino[4,3-a]quinoline-5,5’-pyrimidine]-2’,4’,6’(1’H,3’H)-trione], for which, in the assay on M. tuberculosis H37Rv, the “fold less active against Mtb than 23” value is 2- to 4 fold. In the case of `CC(=O)N1[C@H](C)CN2c3c(cc4c(N5C(=O)OC[C@@H]5C)noc4c3F)CC3(C(=O)NC(=O)NC3=O)[C@H]2[C@@H]1C` [Compound 36, (2R,4S,4aS)-3-acetyl-11-fluoro-2,4-dimethyl-8-((S)-4-methyl-2-oxooxazolidin-3-yl)-2,3,4,4a-tetrahydro-1H,2’H,6H-spiro[isoxazolo[4,5-g]pyrazino[1,2-a]quinoline-5,5’-pyrimidine]-2’,4’,6’(1’H,3’H)-trione], the IC50 on Mtb gyrase was over 1000 µM. For `C[C@@H]1CN2c3c(cc4c(OC[C@H]5COC(=O)N5)noc4c3F)CC3(C(=O)NC(=O)NC3=O)[C@H]2[C@H](C)O1` [Compound 29, (2R,4S,4aS)-11-fluoro-2,4-dimethyl-8-(((S)-2-oxooxazolidin-4-yl)methoxy)-1,2,4,4a-tetrahydro-2’H,6H-spiro[isoxazolo[4,5-g][1,4]oxazino[4,3-a]quinoline-5,5’-pyrimidine]-2’,4’,6’(1’H,3’H)-trione], in the assay on M. tuberculosis H37Rv, the “Mtb MIC” value is 2.0 µM and the MIC came to 2 µM (≈ 1.01 µg/mL).

For the molecule `C[C@@H]1CN2c3c(cc4c(N5C(=O)OC[C@@H]5C)noc4c3F)CC3(C(=O)NC(=O)NC3=O)[C@H]2[C@H](C)N1O` [Compound 35, (2R,4S,4aS)-11-fluoro-3-hydroxy-2,4-dimethyl-8-((S)-4-methyl-2-oxooxazolidin-3-yl)-2,3,4,4a-tetrahydro-1H,2’H,6H-spiro[isoxazolo[4,5-g]pyrazino[1,2-a]quinoline-5,5’-pyrimidine]-2’,4’,6’(1’H,3’H)-trione], the IC50 on Mtb gyrase came out at 207 µM. Turning to `C[C@@H]1CN2c3c(cc4c(OC[C@@H]5CCC(=O)N5C)noc4c3F)CC3(C(=O)NC(=O)NC3=O)[C@H]2[C@H](C)O1` [Compound 25, (2R,4S,4aS)-11-fluoro-2,4-dimethyl-8-(((S)-1-methyl-5-oxopyrrolidin-2-yl)methoxy)-1,2,4,4a-tetrahydro-2’H,6H-spiro[isoxazolo[4,5-g][1,4]oxazino[4,3-a]quinoline-5,5’-pyrimidine]-2’,4’,6’(1’H,3’H)-trione], in the assay on M. tuberculosis H37Rv, the “fold less active against Mtb than 23” value is given as 4 fold. `C[C@@H]1CN2c3c(cc4c(N5C(=O)OC[C@@H]5C)noc4c3F)CC3(C(=O)NC(=O)NC3=O)[C@H]2[C@H](C)O1` [Zoliflodacin 4, zoliflodacin, reference compound]: in the assay with M. tuberculosis H37Rv, the MIC is 7 µM (≈ 3.41 µg/mL).
